From US20080260705A1, “Preventing Arrhythmias Associated with Cell Transplantation” (The Johns Hopkins University, priority 2004, published 2008)

Tests used:
[1] = tested on: SkM:NRVM co-cultures; assay: Pharmacological intervention for induced reentrant arrhythmias, optical mapping of mixed co-cultures; format: cell-based; conditions: n=12
Procedure: Human skeletal myoblasts were obtained from Cambrex (Walkersville, Md.) and grown in myoblast basal growth medium (SkBM, Clonetics) containing 10% fetal bovine serum, recombinant human epidermal factor (10 ng/ml), dexamethasone (3 μg/ml), L-glutamine, Gentamicin and Amphotericin-B, at 37° C. and 5% CO2. (Vials obtained from Cambrex contained 70-80% myoblasts, and the remainder were fibroblasts). The cells were seeded at 3,500 cells/cm^2 and maintained at cell densities of 60-70% to prevent myotube formation during the culture process. Cells were transduced with lentivirus on their second passage and frozen at −80° C. or amplified up to 10 population doublings. For co-cultures, myoblasts were dissociated using trypsin, counted and then used.
Cells were re-suspended in M199 culture medium (Life Technologies, Rockville, Md.), supplemented with 10% heat-inactivated fetal bovine serum (Life Technologies), differentially pre-plated in two 45 minute steps, and then counted using a hemocytometer. For control experiments, 10^6 cells were plated on 22 mm plastic coverslips coated with fibronectin (25 μg/ml). On day 2 after cell plating, serum was reduced to 2%.
Myoblasts and NRVMs were co-cultured (isotropic) on 22 mm plastic cover slips (coated with fibronectin, 25 μg/ml) for 9-11 days and then used for optical mapping. In an initial set of experiments, 0.5×10^6 NRVMs were plated over half of the cover slip, with the other half covered by a PDMS stamp coated with fibronectin (50 μg/ml). The PDMS stamp was removed 24 hours later and 0.5×10^6 myoblasts transduced with Lv-GFP were then plated. […] In a second set of experiments, the myoblasts (transduced with LvGFP) and NRVMs were plated at the same time in varying ratios: 1:1, 1:4 and 1:9 to study the electrophysiologic consequences of mixing the two cell types.
(§1) Coverslips were visually inspected under a microscope. Monolayers with obvious gaps in confluency and non-beating cultures were rejected. The coverslips were placed in a custom-designed chamber, stained with 5 μM di-4-ANEPPS (Molecular Probes; Eugene, Oreg.) for 5 min and continuously superfused with warm (36.5° C.) oxygenated Tyrode solution consisting of (in mM) 135 NaCl, 5.4 KCl, 1.8 CaCl2, 1 MgCl2, 0.33 NaH2PO4, 5 HEPES, and 5 Glucose. A unipolar point or area electrode (4 bipolar line electrodes) was used to stimulate the cells in culture. Action potentials were recorded from 253 sites using a modified custom-built contact fluorescence imaging system.^15 The recording chamber was placed directly above a fiber bundle with fibers arranged in a 17 mm-diameter hexagonal array. A light emitting diode (LED) light source with an interference filter (530+/−25 mm) delivered excitation light to the chamber. […]

[2] = tested on: L-type calcium channel; assay: Nitrendipine dose response curve: APD and conduction velocity by optical mapping; format: cell-based; conditions: nitrendipine 5 μM
Procedure: as §1
Baseline drift was reduced by subtraction of a fitted polynomial curve from the optical signal. […] To compare velocities among different episodes in the same monolayer, conduction velocity was calculated along the same path and averaged over different stimulus responses. […] Data are expressed as Mean +/−SEM unless stated otherwise. Differences between means were assessed using the Student's t test or Fischer's exact test.

Compound | termination of reentry ([1]; lidocaine 200 μM superfused, co-cultures) | slowed the reentry rate ([1]; lidocaine 200 μM superfused, induced reentry in co-cultures) | slowed the reentrant rhythms ([1]; nitrendipine 5 μM superfused, before termination) | time to abrupt termination of reentry ([1]; nitrendipine 5 μM, in all co-cultures) | shortened APD [2]
CCN(CC)CC(=O)Nc1c(C)cccc1C [lidocaine] | did not terminate it in the majority of co-cultures | 70-80% | – | – | –
CCOC(=O)C1=C(C)NC(C)=C(C(=O)OC)C1c1cccc([N+](=O)[O-])c1 (centres unmarked) [nitrendipine] | – | – | 10-20% | ≤ 5 min | 50%
